# According to ChEMBL document CHEMBL3763037 (J Med Chem, 2016):
# Columns and labels:
# LoVo = assay: cells; conditions: Homo sapiens, 120 h
# [1] = target: Poly [ADP-ribose] polymerase 1 (Homo sapiens, UniProt P09874); assay: Inhibition of human PARP1 using [3H]NAD as substrate after 1 min by microplate scintillation counting analysis
# [2] = Cytotoxicity against BRCA2-deficient human Capan1 cells; format: functional, cell-based, CAPAN-1
# PARP 1, 2 and 3 = PARP 1, 2 and 3 (Homo sapiens, UniProt P09874+Q9Y6F1+Q9UGN5); assay: Inhibition of PARP in human LoVo cells assessed as inhibition of poly(ADP)-ribose polymerization for 30 mins by fluorescence assay; format: cell-based
# [3] = Half life in rat liver microsomes; format: ADME
# MRC5 = assay: Cytotoxicity against human MRC5 cells; format: cell-based
# [4] = Terminal eliminational half life in Sprague-Dawley rat at 5 mg/kg, iv by LC-MS/MS analysis; format: ADME, organism-based; conditions: Sprague-Dawley, in vivo, read-out: beta t1/2 (converted)
# [5] = Cmax in Sprague-Dawley rat at 10 mg/kg, po by LC-MS/MS analysis; format: ADME, organism-based; set-up: dose 10 mg/kg, route oral; conditions: in vivo
# [6] = AUC in Sprague-Dawley rat at 10 mg/kg, po by LC-MS/MS analysis; format: ADME, organism-based; conditions: Sprague-Dawley, in vivo
# [7] = Oral bioavailability in Sprague-Dawley rat at 10 mg/kg by LC-MS/MS analysis; format: ADME, organism-based; conditions: Sprague-Dawley, in vivo
# [8] = Clearance in Sprague-Dawley rat at 5 mg/kg, iv by LC-MS/MS analysis; format: ADME, organism-based; conditions: in vivo
# [9] = Volume of distribution at steady state in Sprague-Dawley rat at 5 mg/kg, iv by LC-MS/MS analysis; format: ADME, organism-based; conditions: in vivo, read-out: Vdss
# Sequence of Poly [ADP-ribose] polymerase 1 (P09874 whole entry): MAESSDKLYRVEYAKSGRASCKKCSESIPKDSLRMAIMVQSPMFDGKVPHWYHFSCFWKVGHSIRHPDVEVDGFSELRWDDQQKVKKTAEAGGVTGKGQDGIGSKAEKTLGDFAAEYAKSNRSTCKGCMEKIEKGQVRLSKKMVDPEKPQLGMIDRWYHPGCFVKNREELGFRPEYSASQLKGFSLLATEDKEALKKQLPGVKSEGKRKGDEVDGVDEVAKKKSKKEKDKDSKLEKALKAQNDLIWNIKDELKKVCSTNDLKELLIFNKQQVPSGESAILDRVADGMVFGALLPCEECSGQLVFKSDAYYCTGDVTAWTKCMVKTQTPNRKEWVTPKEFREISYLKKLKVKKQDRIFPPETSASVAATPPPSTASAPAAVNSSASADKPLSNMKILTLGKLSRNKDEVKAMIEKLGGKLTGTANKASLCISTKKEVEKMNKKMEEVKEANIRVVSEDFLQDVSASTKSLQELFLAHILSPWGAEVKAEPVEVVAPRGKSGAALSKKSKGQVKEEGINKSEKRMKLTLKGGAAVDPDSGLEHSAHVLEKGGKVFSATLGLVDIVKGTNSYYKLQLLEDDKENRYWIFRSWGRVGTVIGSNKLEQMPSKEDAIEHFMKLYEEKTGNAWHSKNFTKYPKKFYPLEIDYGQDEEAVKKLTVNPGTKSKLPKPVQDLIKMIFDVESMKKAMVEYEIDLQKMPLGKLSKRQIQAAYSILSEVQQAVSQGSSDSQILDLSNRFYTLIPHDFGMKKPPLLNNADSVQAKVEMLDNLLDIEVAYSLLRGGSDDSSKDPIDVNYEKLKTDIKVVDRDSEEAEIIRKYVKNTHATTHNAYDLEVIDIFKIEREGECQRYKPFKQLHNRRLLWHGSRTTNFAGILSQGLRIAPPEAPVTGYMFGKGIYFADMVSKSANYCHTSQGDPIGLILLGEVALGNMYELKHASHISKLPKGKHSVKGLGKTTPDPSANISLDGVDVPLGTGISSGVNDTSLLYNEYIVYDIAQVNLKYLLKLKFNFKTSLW
Compound,GI50 (LoVo) [µM],IC50 [1] [µM],"EC50 ([2]; Homo sapiens, CAPAN-1) [µM]","EC50 (PARP 1, 2 and 3) [µM]",half-life [3] [h],further results
O=c1[nH]nc2c3c(cccc13)NC(c1ccccc1)C2c1ccccc1 (centres undefined),324,0.0061,2.97,0.0584,–,–
Cn1ccnc1C1c2n[nH]c(=O)c3cccc(c23)NC1c1ccccc1 (centres undefined),97,0.00235,0.36,0.0169,1.48,–
O=c1[nH]nc2c3c(cccc13)N[C@@H](c1ccc(CN3CCC3)cc1)[C@@H]2c1ccc(F)cc1,3.57,0.0056,2.25,0.0118,–,–
Cn1ncnc1C1c2n[nH]c(=O)c3cc(F)cc(c23)NC1c1ccc(C#N)cc1 (centres undefined),–,0.0039,0.088,–,–,–
CN(C)Cc1ccc(C2Nc3cc(F)cc4c(=O)[nH]nc(c34)C2c2ccc(F)cc2)cc1 (centres undefined),94,0.00263,0.134,0.0061,1.37,–
O=c1[nH]nc2c3c(cccc13)NC(c1ccc(CN3CCCC3)cc1)C2c1ccc(F)cc1 (centres undefined),134,0.00202,0.454,0.023,1.48,–
O=c1[nH]nc2c3c(cccc13)NC(c1ccncc1)C2c1ccncc1 (centres undefined),> 400,0.0224,–,–,–,–
CC(=O)Nc1ccc(C2Nc3cc(F)cc4c(=O)[nH]nc(c34)C2c2ncnn2C)cc1 (centres undefined),–,0.00208,0.146,–,> 2,–
Cn1nccc1C1Nc2cc(F)cc3c(=O)[nH]nc(c23)C1c1ncnn1C (centres undefined),–,0.00288,1.92,–,–,–
Cn1ncnc1C1c2n[nH]c(=O)c3cccc(c23)NC1c1ccc(F)cc1 (centres undefined),44,0.00229,0.071,0.00694,> 2,–
Cn1cnnc1C1c2n[nH]c(=O)c3cccc(c23)NC1c1ccccc1 (centres undefined),> 400,0.00276,4.34,–,–,–
CN1CCN(Cc2ccc(C3Nc4cccc5c(=O)[nH]nc(c45)C3c3ccccc3)cc2)CC1 (centres undefined),54.6,0.00202,0.603,0.0406,0.317,–
CN(C)Cc1ccc(C2Nc3cccc4c(=O)[nH]nc(c34)C2c2ccccc2)cc1 (centres undefined),59,0.00236,0.387,0.006,0.2,–
CN(C)Cc1cccc(C2Nc3cccc4c(=O)[nH]nc(c34)C2c2ccccc2)c1 (centres undefined),128,0.00263,–,–,–,–
CC(C)C1c2n[nH]c(=O)c3cccc(c23)NC1c1ccccc1 (centres undefined),–,4.14,–,–,–,–
C[C@]1(c2nc3c(C(N)=O)cccc3[nH]2)CCCN1 [VELIPARIB],6.2,–,–,–,–,EC50 ([2]; capan-1): > 10 µM; EC50 (MRC5; mrc5): > 10 µM
CN(C)Cc1ccc(C2c3n[nH]c(=O)c4cccc(c34)NC2c2ccccc2)cc1 (centres undefined),112,0.00585,–,–,0.1,–
O=c1[nH]nc2c3c(cccc13)NC(c1ccc(CN3CCCC3)cc1)C2c1ccccc1 (centres undefined),90,0.00402,0.298,0.00947,0.133,–
Cn1ncnc1[C@@H]1c2n[nH]c(=O)c3cccc(c23)N[C@H]1c1ccc(F)cc1,3.26,0.0689,1.88,0.25,–,–
CN(C)Cc1ccc(C2Nc3cccc4c(=O)[nH]nc(c34)C2c2ccc(F)cc2)cc1 (centres undefined),76,0.00248,1.73,0.0185,0.733,–
Cn1ccnc1[C@@H]1c2n[nH]c(=O)c3cc(F)cc(c23)N[C@H]1c1ccc(F)cc1,0.104,0.0224,0.124,0.164,–,–
CN(C)Cc1ccc(C2Nc3cccc4c(=O)[nH]nc(c34)C2c2ccc(C(F)(F)F)cc2)cc1 (centres undefined),94,0.00629,0.818,0.0067,–,–
Cn1ncnc1[C@H]1c2n[nH]c(=O)c3cccc(c23)N[C@@H]1c1ccc(F)cc1,0.041,0.00146,0.037,0.0051,–,half-life [4]: 2.44 h; Cmax [5]: 7770 ng/mL; AUC [6]: 39900 ng·h/mL; bioavailability [7]: 47%; clearance [8]: 2 mL/min/kg; Vd [9]: 0.39 L/kg
O=c1[nH]nc2c3c(cccc13)NC(c1ccc(CN3CCC3)cc1)C2c1ccccc1 (centres undefined),89,0.00363,0.434,0.0097,0.133,–
Cn1ccnc1[C@@H]1c2n[nH]c(=O)c3cccc(c23)N[C@H]1c1ccc(F)cc1,> 10,0.136,6.31,0.285,–,–
Cc1ccc(C2c3n[nH]c(=O)c4cccc(c34)NC2c2ccc(CN(C)C)cc2)cc1 (centres undefined),123,0.00195,0.514,0.0108,0.583,–

Compound,GI50 (LoVo) [µM],IC50 [1] [µM],"EC50 ([2]; Homo sapiens, CAPAN-1) [µM]","EC50 (PARP 1, 2 and 3) [µM]",half-life [3] [h],further results
O=c1[nH]nc2c3c(cccc13)NC(c1ccccn1)C2c1ccccn1 (centres undefined),–,0.108,–,–,–,–
Cn1ccnc1C1c2n[nH]c(=O)c3cc(F)cc(c23)NC1c1ccccc1 (centres undefined),36.3,0.00214,0.108,0.0181,1.72,–
Cn1ncnc1C1c2n[nH]c(=O)c3cc(F)cc(c23)NC1c1cncnc1 (centres undefined),–,0.00762,–,–,–,–
CNCc1ccc(-c2[nH]c3cc(F)cc4c3c2CCNC4=O)cc1 [RUCAPARIB],0.144,–,–,–,–,"EC50 (MRC5; Homo sapiens, MRC5): 8.53 µM"
Cn1ccnc1[C@H]1c2n[nH]c(=O)c3cccc(c23)N[C@@H]1c1ccc(F)cc1,0.261,0.00225,0.305,0.0069,–,half-life [4]: 2.3 h; Cmax [5]: 10500 ng/mL; AUC [6]: 36500 ng·h/mL; bioavailability [7]: 91%; clearance [8]: 4 mL/min/kg; Vd [9]: 0.5 L/kg
Cn1ncnc1C1c2n[nH]c(=O)c3cc(F)cc(c23)NC1c1ccc(F)cc1 (centres undefined),19,–,0.008,–,5.98,–
Cn1ccnc1C1c2n[nH]c(=O)c3cccc(c23)NC1c1ccc(F)cc1 (centres undefined),75.5,0.00208,0.418,0.0197,> 2,–
CN(C)Cc1ccc(C2Nc3cc(F)cc4c(=O)[nH]nc(c34)C2c2ccccc2)cc1 (centres undefined),46,0.00329,0.146,0.00848,0.0833,–
Cn1ncnc1C1c2n[nH]c(=O)c3cc(F)cc(c23)NC1c1ccccc1 (centres undefined),24,0.0026,0.009,–,7.87,–
Cn1ncnc1[C@@H]1c2n[nH]c(=O)c3cc(F)cc(c23)N[C@H]1c1ccc(F)cc1,1.81,–,1.14,–,–,–
O=c1[nH]nc2c3c(cccc13)N[C@H](c1ccc(CN3CCC3)cc1)[C@H]2c1ccc(F)cc1,0.279,0.0011,0.389,0.0063,–,half-life [4]: 2.29 h; Cmax [5]: 126 ng/mL; AUC [6]: 914 ng·h/mL; bioavailability [7]: 14%; clearance [8]: 26 mL/min/kg; Vd [9]: 4.5 L/kg
O=c1[nH]nc2c3c(cccc13)NC(c1ccc(F)cc1)C2c1nccs1 (centres undefined),106,0.00735,–,0.0244,–,–
CN(C)Cc1cccc(C2c3n[nH]c(=O)c4cccc(c34)NC2c2ccccc2)c1 (centres undefined),204,0.00365,–,–,0.183,–
O=c1[nH]nc2c3c(cccc13)NC(c1ccc(CN3CCC3)cc1)C2c1ccc(F)cc1 (centres undefined),95,0.00309,0.276,0.00381,1.48,–
CC(C)c1ccc(C2c3n[nH]c(=O)c4cccc(c34)NC2c2ccc(CN(C)C)cc2)cc1 (centres undefined),123,0.00959,–,0.0152,–,–
Cn1ncnc1C1c2n[nH]c(=O)c3cccc(c23)NC1c1ccccc1 (centres undefined),> 400,0.0024,0.17,0.149,6.9,–
Cn1ccnc1C1Nc2cccc3c(=O)[nH]nc(c23)C1c1ccccc1 (centres undefined),> 400,0.00945,–,–,–,–
Cn1nccc1C1c2n[nH]c(=O)c3cc(F)cc(c23)NC1c1ccc(F)cc1 (centres undefined),> 400,0.00184,0.956,0.00933,–,–
Cn1ccnc1C1c2n[nH]c(=O)c3cc(F)cc(c23)NC1c1ccc(F)cc1 (centres undefined),35.7,0.00187,0.056,0.017,–,–
Cn1ccnc1C1c2n[nH]c(=O)c3cccc(c23)NC1c1ccc(C(F)(F)F)cc1 (centres undefined),192,0.00527,1.1,0.0272,–,–
O=c1[nH]nc2c3c(cccc13)NC(c1cccnc1)C2c1cccnc1 (centres undefined),–,0.0177,–,–,–,–
O=c1[nH]nc2c3c(cccc13)NC(c1cccnc1)C2C1CCCNC1 (centres undefined),–,0.105,–,–,–,–
Cn1ccnc1C1Nc2cccc3c(=O)[nH]nc(c23)C1c1nccn1C (centres undefined),–,0.0245,–,–,–,–
Cn1ccnc1C1c2n[nH]c(=O)c3cc(Cl)cc(c23)NC1c1ccccc1 (centres undefined),111,0.00618,0.785,0.121,–,–
NC(=O)c1cccc2cn(-c3ccc([C@@H]4CCCNC4)cc3)nc12 [NIRAPARIB],–,–,0.65,–,–,–
CN(C)Cc1ccc(C2Nc3cccc4c(=O)[nH]nc(c34)C2c2ccc(CN(C)C)cc2)cc1 (centres undefined),63,0.00389,0.979,0.0186,> 2,–
